{"source": "patent US20250198902A1", "about": "“METHOD OF ANALYSING THE MOTIONAL ACTIVITY OF PARTICLES” (RESISTELL AG, priority 2022, published 2025)", "system": "human colon cancer cell line SW480", "assay": "nanomotion drug sensitivity testing on cancer cells attached to microcantilever", "assay_type": "cell-based", "settings": "SW480 cells in DMEM containing 10% FCS; 32 μM doxorubicin in Drug phase vs second Medium phase", "method": "In particular, these figures show the variance of the deflection of a microcantilever with attached human colon cancer cell line SW480 measured in cell culture medium and subsequent exposure to inhibitory concentrations of the drug doxorubicin (FIG. 25a) and the variance for cells kept in cell culture medium (FIG. 25b). The doxorubicin susceptible SW480 was cultured under standard laboratory conditions (i.e., cell culture medium (Dulbecco's Modified Eagle Medium (DMEM) containing 10% heat-inactivated fetal calf serum (FCS), 37° C., 5% CO2) in cell culture flasks. In preparation of nanomotion experiments, cells were detached, collected in cell culture medium, and washed in DMEM containing 10% FCS. The cell suspension was used for the attachment to the cantilever, and all nanomotion measurements with the device were performed in DMEM containing 10% FCS. The colon cancer cells were attached to the cantilever. Three phases of signal recording were performed: (i) Blank phase, where the deflections of the bare cantilevers are measured, (ii) the Medium phase, where the deflections of the cantilever with attached SW480 were measured followed by (iii) the Drug phase, where the deflections of the cantilever with attached SW480 after exposure to a drug were recorded or a second Medium phase without doxorubicin. […]", "data": [{"smiles": "COc1cccc2c1C(=O)c1c(O)c3c(c(O)c1C2=O)C[C@@](O)(C(=O)CO)C[C@@H]3O[C@H]1C[C@H](N)[C@H](O)[C@H](C)O1", "note": "[doxorubicin]", "values": [{"measurement": "variance of the nanomotion signal (cantilever deflection) after drug exposure", "value": "decrease in the variance after exposure to the drug is prominent"}]}]}
